Consider three molecules from patent US7598412B2, “Modulators of ATP-binding cassette transporters” (Vertex Pharmaceuticals Incorporated, priority 2003, dated 2009).

The assay has as its system cAMP levels in FRT cells. Kind of assay: Tropix assay for measurement of cAMP in FRT cells. The following applies: n=4; for cAMP generated, average % of cAMP produced by 20 μM of forskolin: 15 minutes incubation. Type of assay: cell-based, rat. The method, then:
In the following example, the effect on cAMP levels by three structurally similar compounds from Table 1 were determined using the cAMP levels from 20 μM forskolin as the normalized reference measure.
The level of cAMP in FRT cells following 0.5 μM forskolin or test compound application was determined using a commercially available chemiluminiscent immunoassay system for mammalian cells called Tropix® (Applied Biosystems, Bedford, Mass.). Briefly, FRT cells were incubated for 15 minutes with a test compound in the presence and absence of 0.5 μM forskolin. The compounds were aspirated and the cells were then lysed and transferred along with the lysis buffer to a 96-well Tropix® ELISA plate. A cAMP-Alk Phos conjugate is then added to the assay plate, followed by the addition of cAMP anti-body. After several wash and aspiration steps, Sapphire blue II solution is added and the […], and the cAMP concentrations were determined using a cAMP standard curve that was present in each plate.

Setting [1] is: compound in the presence of 0.5 μM forskolin, FRT cells.

Several values for one entry are separate records, joined by “and”; a condition that tells them apart may be missing. Equal entries are not always repeated.

Turning to `COc1ccc(C2(CNC(=O)c3cc4ccccc4o3)CCCC2)cc1OC` [Compound 7, N-((1-(3,4-dimethoxyphenyl)-cyclopentyl)methyl)benzofuran-2-carboxamide], the “cAMP generated, average % of cAMP produced by 20 μM of forskolin” value is listed as 40.3±3.5% (compound alone, FRT cells) and 92.3±2.7% under setting [1].

Regarding `C=C[C@@]1(C)CC(=O)[C@]2(O)[C@@]3(C)[C@@H](O)CCC(C)(C)[C@@H]3[C@H](O)[C@H](OC(C)=O)[C@@]2(C)O1` [forskolin, reference compound], the “cAMP of the 0.5 μM forskolin control, % of 20 μM forskolin” value (0.5 μM forskolin alone, FRT cells) is 45.9±3.0% and 32.2±3.2%.

As for `COc1ccc(C(C)(C)CNC(=O)c2cc3ccccc3o2)cc1OC` [Compound 34, N-(2-(3,4-dimethoxyphenyl)-2-methylpropyl)benzofuran-2-carboxamide], the “cAMP generated, average % of cAMP produced by 20 μM of forskolin” value reads like this: (compound alone, FRT cells) 24.4±1.1%; under setting [1], 61.5±1.8%. In addition, the “change of cAMP compared with the DMSO control” value (compound alone) is “not a significant increase”. Further, where the note is “compound in the presence of 0.5 μM forskolin”, the “change of cAMP compared with the 0.5 μM forskolin control” value is on record as “significant increase”.
